# Test results published in US20150216860A1, “THERAPEUTIC AGENT FOR SYSTEMIC BONE DISEASE AND USE THEREOF” (NATIONAL UNIVERSITY CORPORATION NAGOYA INIVERSITY, priority 2013, published 2015).
# How the values were obtained:
# FGF2-treated RCS cells [1] = assay: RCS growth arrest assay (MTS); assay type: cell-based, rat; conditions: for cell toxicity in RCS cells: 50 μM
# Procedure: (§1) RCS cells, which were kindly provided from Dr. Pavel Krejci (Medical Genetics Institute, Cedars-Sinai Medical Center, LA), were cultured in Dulbecco's Modified Eagle's Medium (DMEM, Invitrogen) supplemented with 10% fetal bovine serum (FBS, Thermo Scientific) (Reference 14). For the RCS growth arrest assays, ˜5×10^3 cells were seeded in 96-well culture plates (Falcon) and incubated for 48 hours in the presence of 10 μM of 1,186 FDA-approved chemical compounds (Prestwick Chemical) and 5 ng/ml of FGF2 (R&D Systems). Cell proliferation was quantified by MTS assay (Cell 96 AQueus One Solution Cell Proliferation Assay, Promega) according to the manufacturer's instructions.
# normal mouse [2] = assay: Internal administration to normal mouse from week 2 after birth; assay type: in vivo; conditions: administered from week 2 after birth, evaluated week 5
# Procedure: (§2) Meclizine was internally administered to a normal pregnant mouse from day 14 of pregnancy (2 mg of meclizine is contained in 5 g of feed), and the body length and extremity length of the neonatal mouse on day 5 after birth were evaluated. On the other hand, meclizine was internally administered to a normal mouse from week 2 after birth, and the mouse was evaluated in the same manner on week 5.
# MEK1/2 phosphorylation = assay: Western blotting of MEK phosphorylation in FGF2-treated RCS cells; assay type: cell-based, rat; conditions: 20 μM pretreatment 30 min, 5 ng/ml FGF2 5 min
# Procedure: (§3) RCS cells were treated with 20 μM meclizine for 30 min before adding 5 ng/ml FGF2 (“Vehicle” is no treatment group). After 5 min, cells were lysed in the ice-cold RIPA Lysis Buffer (Santa Cruz) supplemented with proteinase inhibitors. Whole cell lysates were separated on SDS-PAGE and transferred to a nitrocellulose membrane. The phosphorylation levels of molecules in the MAPK pathway were determined by Western blotting using the following antibodies: ERK1/2, phospho-ERK1/2(Thr^202/Tyr^204), MEK1/2, and phospho-MEK1/2(Ser^217/221) (Cell Signaling).
# [3] = test system: RCS cells expressing caMEK; assay: MTS growth assay of RCS cells expressing constitutively active MEK; assay type: cell-based, rat
# Procedure: as §1
# (§4) Clones that express constitutively active mutants in the MAPK/ERK pathway, pcDNA4Myc-ERK2(PD), pcDNA3HA-MEK1(DD), and pcDNA3Flag-C-rafΔN (Reference 30), were kindly provided by Dr. Mutsuhiro Takekawa (Medical Science Institute, Tokyo University, Japan). The inserts were digested with BamHI and XhoI, and were cloned into the CSII-CMV-MCS-IRES2-Venus at the BamHI sites after blunting all digested ends. Lentivirus particles were generated as described above and were applied to RCS cells.
# [4] = test system: HCS-2/8 cells expressing FGFR3-K650E (TD); assay: Growth assay of HCS-2/8 cells expressing FGFR3-K650E; assay type: cell-based, human; conditions: for integrated intensities of Venus signals: K650E-expressing HCS-2/8, 72 hours
# From the text: (§5) The pRK7-FGFR3-WT, -K650E, and -K650M vectors expressing wild-type and mutant FGFR3 (Reference 29) were kindly provided by Dr. Pavel Krejci (Medical Genetics Institute, Cedars-Sinai Medical Center, LA). The pRK7-FGFR3-G380R was constructed by the QuikChange site-directed mutagenesis kit (Stratagene). The wild-type and mutant FGFR3 cDNAs were excised from pRK7-FGFR3 vectors by double digestion with HindIII and BamHI. The fragments were cloned into the lentivirus vector, CSII-CMV-MCS-IRES2-Venus using the NheI and BamHI sites. CSII-CMV-MCS-IRES2-Venus was kindly provided by Dr. Hiroyuki Miyoshi (Riken BioResource Center, Tsukuba, Japan.). The HindIII site of the insert and the NheI site of the vector were blunted using Quick Blunting Kit (New England Biolabs) before ligation. HEK293 cells were plated in 150-mm dishes the day before transfection. We introduced the pLP1, pLP2, pLP/VSVG plasmids (ViraPower Packaging Mix, Invitrogen), and the CSII-CMV-MCS-IRES2-Venus vector into HEK293 cells with Lipofectamine 2000 (Invitrogen) according to the manufacturer's protocols. At 48 hours after transfection, we filtered the media containing the virus particles using the Millex-HV 0.45 μm PVDF filters (Millex) and purified lentivirus using two steps of ultracentrifugation (Beckman Coulter). The lentivirus was added to the medium of HCS-2/8 or ATDC5 cells. After 48 hours, we confirmed that more than 90% of cells were positive for Venus signals.
# HCS-2/8 (Reference 31) cells were seeded in 96-well tissue culture plates. HCS-2/8 cells were then infected with lentivirus expressing either FGFR3-WT, -K650E, or -K650M. After 48 hours, the numbers of cells were estimated by MTS assay. In addition, ˜1×10^5 HCS-2/8 cells in a 12-well tissue plate were introduced with lentivirus expressing FGFR3-K650E. After 72 hours, the fluorescence intensity of the Venus protein was quantified by the ArrayScan VTI HCS Reader (Thermo Scientific).
# ERK1/2 phosphorylation = assay: Western blotting of ERK phosphorylation in FGF2-treated RCS cells; assay type: cell-based, rat; conditions: 20 μM pretreatment 30 min, 5 ng/ml FGF2 5 min
# Procedure: as §3
# FGF2-treated RCS cells [5] = assay: Alcian blue staining of FGF2-treated RCS cells; assay type: cell-based, rat; conditions: 5 ng/ml FGF2, 72 hours; meclizine 10 μM or 20 μM, CNP 0.2 μM
# Procedure: For Alcian blue staining, growing RCS cells in 12-well plates were added with 5 ng/ml FGF2 and also with either 10 μM meclizine or 0.2 μM CNP (Calbiochem). After 72 hours, cells were fixed with methanol for 30 minutes at −20° C., and stained overnight with 0.5% Alcian Blue 8 GX (Sigma) in 1 N HCl. For quantitative analyses, Alcian blue-stained cells were lysed in 200 μl of 6 M guanidine HCl for 6 hours at room temperature (Reference 28). The optical density of the extracted dye was measured at 610 nm using PowerScan 4 (DS Pharma Biomedical).
# [6] = test system: ATDC5 cells expressing FGFR3-G380R (ACH); assay: Micromass culture of ATDC5 cells expressing FGFR3-G380R; assay type: cell-based, mouse; conditions: six days, 20 μM meclizine
# [7] = test system: HCS-2/8 cells expressing FGFR3-K650M (SADDAN); assay: Growth assay of HCS-2/8 cells expressing FGFR3-K650M; assay type: cell-based, human; conditions: 20 μM
# From the text: as §5, with “At 48 hours after transfection, we filtered the media containing the virus particles using the Millex-HV 0.45 μm PVDF filters (Millex) and purified lentivirus using two steps of ultracentrifugation (Beckman Coulter). The lentivirus was added to the medium of HCS-2/8 or ATDC5 cells. After 48 hours, we confirmed that more than 90% of cells were positive for Venus signals.” left out
# HCS-2/8 (Reference 31) cells were seeded in 96-well tissue culture plates. […] After 72 hours, the fluorescence intensity of the Venus protein was quantified by the ArrayScan VTI HCS Reader (Thermo Scientific).
# [8] = test system: Mmp10, Mmp13, and Adamts1 mRNA; assay: Real-time RT-PCR of matrix proteinases in FGF2-treated RCS cells; assay type: cell-based, rat; conditions: FGF2 four hours; 20 μM meclizine or 0.2 μM CNP
# Procedure: Total RNA was isolated from FGF2-treated RCS cells in the presence of 20 μM of meclizine or 0.2 μM of CNP using Trizol. The first strand cDNA was synthesized with ReverTra Ace (Toyobo). We quantified mRNA expression of matrix proteinases (Mmp10, Mmp13, and Adamts1) using LightCycler 480 Real-Time PCR (Roche) and SYBR Green (Takara). The mRNA levels were normalized for that of Gapdh.
# [9] = test system: RCS cells expressing caRAF; assay: MTS growth assay of RCS cells expressing constitutively active RAF; assay type: cell-based, rat
# Procedure: as §1, §4
# embryonic tibiae = assay: Bone explant culture of embryonic tibiae; set-up: species or system mouse; conditions: for longitudinal length of embryonic tibiae with FGF2: FGF2 100 ng/ml, day 6, meclizine 20 μM, CNP 0.2 μM
# Procedure: For bone explant culture, tibiae were dissected under the microscope from wild-type mouse embryos on E16.5, placed in 96-well plates, and cultured in α-minimal essential medium (Invitrogen) supplemented with 0.2% bovine serum albumin, 1 mM β-glycerophosphate, and 50 μg/ml ascorbic acid. Embryonic tibiae were further treated with 100 ng/ml FGF2 in the presence or absence of 20 μM meclizine or 0.2 μM CNP for 6 days, then fixed in 10% formaldehyde in phosphate-buffered saline, demineralized with 0.5 M EDTA, and embedded in paraffin. Sections were stained with hematoxylin-eosin and Alcian blue. Images were taken with the SZ61 microscope (Olympus) equipped with the XZ-1 digital camera (Olympus). The longitudinal length of bone, which was defined as the length between proximal and distal articular cartilage, was measured using ImageJ (NIH).
# [10] = test system: ischemic injury in the brain and heart; conditions: cited from earlier work
# normal mouse [11] = assay: Internal administration to normal pregnant mouse, neonatal mouse evaluated; assay type: in vivo; conditions: in feed to pregnant mouse from day 14 of pregnancy, day 5 after birth
# Procedure: as §2
# [12] = test system: RCS cells expressing caERK; assay: MTS growth assay of RCS cells expressing constitutively active ERK; assay type: cell-based, rat
# Procedure: as §1, §4
# Fgfr3^Y367C/+ mice = conditions: subcutaneous administration; cited from earlier work
# [13] = in vivo; cited from earlier work
# FGFR3 signaling = conditions: cited from earlier work
# Fgfr3^ach mice = conditions: continuous intravenous infusion; cited from earlier work
compound,measurement,setting,value
"Cc1cccc(CN2CCN(C(c3ccccc3)c3ccc(Cl)cc3)CC2)c1 (stereo not shown) [meclizine, 1-[(4-chlorophenyl)phenylmethyl]-4-[(3-methylphenyl)methyl]piperazine]","RCS proliferation, concentration dependence","FGF2-treated RCS cells [1]; 0, 1, 2, 5, 10, 20, and 50 μM, 5 ng/ml FGF2, 48 hours, MTS assay",dose-dependent increases
same,increase in RCS proliferation,"FGF2-treated RCS cells [1]; 10 μM compound, 5 ng/ml FGF2, 48 hours, MTS assay",≥ 1.4 fold
same,cell toxicity in RCS cells,FGF2-treated RCS cells [1],cell toxicity was evident
same,cell toxicity in RCS cells,FGF2-treated RCS cells [1]; listed as Meclizine,slight toxicity
same,body length,normal mouse [2],increase
same,tail length,normal mouse [2],increase
same,MEK1/2 phosphorylation,MEK1/2 phosphorylation,remained unchanged
same,caMEK-mediated growth inhibition,[3],rescued
same,cellular toxicity in K650E-expressing HCS-2/8,[4]; 20 μM,without apparent cellular toxicity
same,growth arrest of K650E-expressing HCS-2/8,"[4]; 20 μM, 48 hours, MTS assay",partially but significantly rescued the growth arrest
same,integrated intensities of Venus signals,[4],significantly increased
same,FGF2-mediated ERK1/2 phosphorylation,ERK1/2 phosphorylation,attenuated
same,Alcian blue staining and chondrocyte-like cell shape,FGF2-treated RCS cells [5],restored
same,"levels of glycosaminoglycans (Alcian blue, 610 nm absorbance)",[6],significantly increased the levels of glycosaminoglycans
same,cellular toxicity in K650M-expressing HCS-2/8,[7],without apparent cellular toxicity
same,growth arrest of K650M-expressing HCS-2/8,"[7]; 48 hours, MTS assay",partially but significantly rescued the growth arrest
same,"expressions of Mmp10, Mmp13, and Adamts1",[8],significantly suppressed
same,caRAF-mediated growth inhibition,[9],rescued
same,longitudinal length of embryonic tibiae with FGF2,embryonic tibiae,significantly attenuated FGF2-mediated growth inhibition
same,length of tibia without FGF2 treatment,"embryonic tibiae; without FGF2, day 6, 20 μM",increased the length of tibia
same,cytoprotective activity against ischemic injury,[10],cytoprotective activities
same,body length of neonatal mouse,normal mouse [11],increase
same,length of superior and inferior limbs of neonatal mouse,normal mouse [11],increase
same,caERK-mediated growth inhibition,[12],had no effect
"BMN111: CNP analog with extended plasma half-life (PGQEHPNARKYKGANKKGLSKGCFGLKLDRIGSMSGLGC; chains of the INN, looked up)",bone growth in Fgfr3^Y367C/+ mice,Fgfr3^Y367C/+ mice,significant recovery of bone growth
same,plasma half-life,[13],extended
O=C(Nc1cc(C(=O)Nc2ccc(S(=O)(=O)O)cc2S(=O)(=O)O)cc(C(=O)Nc2ccc(S(=O)(=O)O)cc2S(=O)(=O)O)c1)Nc1cc(C(=O)Nc2ccc(S(=O)(=O)O)cc2S(=O)(=O)O)cc(C(=O)Nc2ccc(S(=O)(=O)O)cc2S(=O)(=O)O)c1 [NF449],FGFR3 signaling in RCS chondrocytes,FGFR3 signaling,inhibits FGFR3 signaling
"CNP: C-type natriuretic peptide, potent antagonist of FGFR3 signaling, used as positive control",integrated intensities of Venus signals,[4],increased the integrated Venus signal intensities
same,half-life,[13],very short
same,Alcian blue staining and chondrocyte-like cell shape,FGF2-treated RCS cells [5],approximated that of FGF2-negative cells
same,"levels of glycosaminoglycans (Alcian blue, 610 nm absorbance)",[6],increased the Alcian blue staining
same,"expressions of Mmp10, Mmp13, and Adamts1",[8],significantly suppressed
same,dwarfism of Fgfr3^ach mice,Fgfr3^ach mice,successfully normalized the dwarfism
same,longitudinal length of embryonic tibiae with FGF2,embryonic tibiae,significantly attenuated FGF2-mediated growth inhibition
